The source of these data is patent US8722849B2, “Polypeptides” (Novo Nordisk A/S, priority 2011, dated 2014).

One series has as its system food intake. In words: Assay (I) efficacy testing on appetite (food intake), ad libitum fed rat model. Conditions: 3 nmol/kg. In kind it is in vivo, Sprague Dawley (SD) rats. An excerpt:
In the following examples reference is made to the following Assays: • Assay (I)— Experimental protocol for efficacy testing on appetite using an ad libitum fed rat model • ASSAY (II)a—Functional assay—Human calcitonin and amylin receptor assay • ASSAY (II)b—Functional assay—Rat calcitonin and rat amylin receptor assays • ASSAY (III)—ThT fibrillation assays for the assessment of physical stability of protein formulations • ASSAY (IV)—Determination of solubility • ASSAY (V)—Determination of binding to the human amylin receptor • ASSAY (VI)—Determination of the binding to the rat amylin receptor • ASSAY (VII)—Determination of binding to the human calcitonin receptor • ASSAY (VIII)—Determination of binding to the rat calcitonin receptor • ASSAY (IX)—pK—Determination of T % in mini-pig • ASSAY (X)—pK—Determination of T % in rat ASSAY (I)—Experimental Protocol for Efficacy Testing on Appetite Using an Ad Libitum Fed Rat Model
Sprague Dawley (SD) rats from Taconic Europe, Denmark are used for the experiments. The rats have a body weight 200-250 g at the start of experiment. The rats arrive at least 10-14 days before start of experiment to allow acclimatization to experimental settings. During this period the animals are handled at least 2 times. After arrival rats are housed individually for one week in a reversed light/dark phase (meaning that lights are off during daytime and on during nighttime) […]. Since rats are normally active and eat their major part of their daily food intake during the dark period, rats are dosed in the morning right before lights are turned off. This set-up results in the lowest data variation and highest test sensitivity. The experiment is conducted in the rats' home cages and rats have free access to food and water throughout the acclimatization period and the experiment period. Each dose of derivative is tested in a group of 5-8 rats. A vehicle group of 6-8 rats is included in each set of testing. Rats are dosed once according to body weight with a 0.01-3 mg/kg solution administered intraperitoneally (ip), orally (po) or subcutaneously (sc). The time of dosing is recorded for each group. After dosing, the rats are returned to their home cages, where they then have access to food and water. The food consumption is recorded individually continuously by on-line registration or manually every hour for 7 hours, and then after 24 h and sometimes 48 h. At the end of the experimental session, the animals are euthanised.
The individual data are recorded in Microsoft excel sheets. Outliers are excluded after applying the Grubbs statistical evaluation test for outliers, and the result is presented graphically using the GraphPad Prism program.

Series [1] is described as follows: Assay (III) ThT fibrillation assay for physical stability. In kind it is physicochemical. The method, boiled down: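 Freshly prepared formulations, pH-adjusted, with 1 μM ThT; four or eight replicates incubated at 37 °C under 960 rpm orbital shaking. Fluorescence (ex 444/em 485 nm) read every 20 min; […]. Peptide concentration measured by RP-HPLC before and after the run.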

Starred links: 1 amine or outer side, 2 acyl side, 3 side chain; linkers in the order of their positions; H or OH if unused. Positions of bridges follow the written chain, without caps; N, C: chain ends. Residues, ends and D or L forms follow the SMILES beside them. *: point of attachment. C20 diacid = O=C(O)CCCCCCCCCCCCCCCCCCC(=O)*; γGlu = O=C(O)[C@H](CCC(=O)[*:2])N[*:1] A value given as a limit tells only on which side of the number the result lay.

In the case of `CC[C@H](C)[C@H](NC(=O)[C@@H]1CCCN1C(=O)CNC(=O)[C@H](Cc1ccccc1)NC(=O)[C@H](CC(N)=O)NC(=O)[C@H](CC(N)=O)NC(=O)[C@H](CO)NC(=O)[C@H](CO)NC(=O)[C@H](CCCNC(=N)N)NC(=O)[C@@H](NC(=O)[C@H](CC(C)C)NC(=O)[C@H](Cc1ccccc1)NC(=O)[C@H](CCC(=O)O)NC(=O)[C@H](C)NC(=O)[C@H](CC(C)C)NC(=O)[C@H](CCCNC(=N)N)NC(=O)[C@H](CCC(N)=O)NC(=O)[C@@H](NC(=O)[C@H](C)NC(=O)[C@@H]1CSSC[C@H](NC(=O)[C@H](Cc2c[nH]cn2)NC(=O)CC[C@H](NC(=O)CCCCCCCCCCCCCCCCCCC(=O)O)C(=O)O)C(=O)N[C@@H](CC(N)=O)C(=O)N[C@@H]([C@@H](C)O)C(=O)N[C@@H](C)C(=O)N[C@@H]([C@@H](C)O)C(=O)N1)[C@@H](C)O)C(C)C)C(=O)N[C@@H](CC(C)C)C(=O)N1CCC[C@H]1C(=O)N1CCC[C@H]1C(=O)N[C@H](C(=O)N[C@@H](CC(N)=O)C(=O)N[C@H](C(=O)NCC(=O)N[C@@H](CO)C(=O)N[C@@H](CC(N)=O)C(=O)N[C@H](C(=O)N[C@@H](Cc1ccc(O)cc1)C(N)=O)[C@@H](C)O)C(C)C)[C@@H](C)O` [Example 15, N-alpha-[(S)-4-Carboxy-4-(19-carboxynonadecanoylamino)butyryl]-[His1,Glu14,Arg18]-pramlintide] ({C20 diacid-γGlu}-HCNTATCATQRLAEFLVRSSNNFGPILPPTNVGSNTY-NH2; disulfide 2-7 (inferred); C-terminus assumed), in the series with food intake, the “Food intake reduction 0-24 h 3 nmol/kg (%)” value is reported as 56% and the “Food intake reduction 24-48 h 3 nmol/kg (%)” value stood at 59%. Also, the “ThT pH 4.0 lag time (h)” value in series [1] (ThT fibrillation assay) turned out to be 4.7 h.

Regarding `CC[C@H](C)[C@H](NC(=O)[C@@H]1CCCN1C(=O)CNC(=O)[C@H](Cc1ccccc1)NC(=O)[C@H](CC(N)=O)NC(=O)[C@H](CC(N)=O)NC(=O)[C@H](CO)NC(=O)[C@H](CO)NC(=O)[C@H](Cc1c[nH]cn1)NC(=O)[C@H](Cc1c[nH]cn1)NC(=O)[C@H](CC(C)C)NC(=O)[C@H](Cc1ccccc1)NC(=O)[C@H](CCC(=O)O)NC(=O)[C@H](C)NC(=O)[C@H](CC(C)C)NC(=O)[C@H](CCCNC(=N)N)NC(=O)[C@H](CCC(N)=O)NC(=O)[C@@H](NC(=O)[C@H](C)NC(=O)[C@@H]1CSSC[C@H](NC(=O)[C@H](Cc2c[nH]cn2)NC(=O)[C@H](Cc2c[nH]cn2)NC(=O)CC[C@H](NC(=O)CCCCCCCCCCCCCCCCCCC(=O)O)C(=O)O)C(=O)N[C@@H](CC(N)=O)C(=O)N[C@@H]([C@@H](C)O)C(=O)N[C@@H](C)C(=O)N[C@@H]([C@@H](C)O)C(=O)N1)[C@@H](C)O)C(=O)N[C@@H](CC(C)C)C(=O)N1CCC[C@H]1C(=O)N1CCC[C@H]1C(=O)N[C@H](C(=O)N[C@@H](CC(N)=O)C(=O)N[C@H](C(=O)NCC(=O)N[C@@H](CO)C(=O)N[C@@H](CC(N)=O)C(=O)N[C@H](C(=O)N[C@@H](Cc1ccc(O)cc1)C(N)=O)[C@@H](C)O)C(C)C)[C@@H](C)O` [Example 17, N-alpha-[(S)-4-Carboxy-4-(19-carboxynonadecanoylamino)butyryl]-His-[His1,Glu14,His17]-pramlintide] ({C20 diacid-γGlu}-HHCNTATCATQRLAEFLHHSSNNFGPILPPTNVGSNTY-NH2; disulfide 3-8 (inferred); C-terminus assumed), in the series on food intake, the “Food intake reduction 0-24 h 3 nmol/kg (%)” value is listed as 40% and the “Food intake reduction 24-48 h 3 nmol/kg (%)” value was determined as 22%. Also, in series [1] (ThT fibrillation assay), the “ThT pH 4.0 lag time” value was 30.3 h and the “ThT pH 4.0 lag time (h)” value was 30.3 h.

Regarding `CC[C@H](C)[C@H](NC(=O)[C@@H]1CCCN1C(=O)CNC(=O)[C@H](Cc1ccccc1)NC(=O)[C@H](CC(N)=O)NC(=O)[C@H](CC(N)=O)NC(=O)[C@H](CO)NC(=O)[C@H](CO)NC(=O)[C@H](Cc1c[nH]cn1)NC(=O)[C@H](Cc1c[nH]cn1)NC(=O)[C@H](CC(C)C)NC(=O)[C@H](Cc1ccccc1)NC(=O)[C@H](CCC(=O)O)NC(=O)[C@H](C)NC(=O)[C@H](CC(C)C)NC(=O)[C@H](CCCNC(=N)N)NC(=O)[C@H](CCC(N)=O)NC(=O)[C@@H](NC(=O)[C@H](C)NC(=O)[C@@H]1CSSC[C@H](NC(=O)CC[C@H](NC(=O)CCCCCCCCCCCCCCCCCCC(=O)O)C(=O)O)C(=O)N[C@@H](CC(N)=O)C(=O)N[C@@H]([C@@H](C)O)C(=O)N[C@@H](C)C(=O)N[C@@H]([C@@H](C)O)C(=O)N1)[C@@H](C)O)C(=O)N[C@@H](CC(C)C)C(=O)N1CCC[C@H]1C(=O)N1CCC[C@H]1C(=O)N[C@H](C(=O)N[C@@H](CC(N)=O)C(=O)N[C@H](C(=O)NCC(=O)N[C@@H](CO)C(=O)N[C@@H](CC(N)=O)C(=O)N[C@H](C(=O)N[C@@H](Cc1ccc(O)cc1)C(N)=O)[C@@H](C)O)C(C)C)[C@@H](C)O` [Example 28, N-alpha-[(S)-4-Carboxy-4-(19-carboxynonadecanoylamino)butyryl]-[des1,Glu14,His17]-pramlintide] ({C20 diacid-γGlu}-CNTATCATQRLAEFLHHSSNNFGPILPPTNVGSNTY-NH2; disulfide 1-6 (inferred)), in the series with food intake, the “Food intake reduction 0-24 h 3 nmol/kg (%)” value was found to be 39% and the “Food intake reduction 24-48 h 3 nmol/kg (%)” value is on record as 36%. Moreover, the “ThT pH 4.0 lag time (h)” value in series [1] (ThT fibrillation assay) worked out at 9.3 h.

Take `CC[C@H](C)[C@H](NC(=O)[C@@H]1CCCN1C(=O)CNC(=O)[C@H](Cc1ccccc1)NC(=O)[C@H](CC(N)=O)NC(=O)[C@H](CC(N)=O)NC(=O)[C@H](CO)NC(=O)[C@H](CO)NC(=O)[C@H](Cc1c[nH]cn1)NC(=O)[C@H](Cc1c[nH]cn1)NC(=O)[C@H](CC(C)C)NC(=O)[C@H](Cc1ccccc1)NC(=O)[C@H](CCC(=O)O)NC(=O)[C@H](C)NC(=O)[C@H](CC(C)C)NC(=O)[C@H](CCCNC(=N)N)NC(=O)[C@H](CCC(N)=O)NC(=O)[C@@H](NC(=O)[C@H](C)NC(=O)[C@@H]1CSSC[C@H](NC(=O)[C@H](CCC(=O)O)NC(=O)CC[C@H](NC(=O)CCCCCCCCCCCCCCCCCCC(=O)O)C(=O)O)C(=O)N[C@@H](CC(N)=O)C(=O)N[C@@H]([C@@H](C)O)C(=O)N[C@@H](C)C(=O)N[C@@H]([C@@H](C)O)C(=O)N1)[C@@H](C)O)C(=O)N[C@@H](CC(C)C)C(=O)N1CCC[C@H]1C(=O)N1CCC[C@H]1C(=O)N[C@H](C(=O)N[C@@H](CC(N)=O)C(=O)N[C@H](C(=O)NCC(=O)N[C@@H](CO)C(=O)N[C@@H](CC(N)=O)C(=O)N[C@H](C(=O)N[C@@H](Cc1ccc(O)cc1)C(N)=O)[C@@H](C)O)C(C)C)[C@@H](C)O` [Example 29, N-alpha-[(S)-4-Carboxy-4-(19-carboxynonadecanoylamino)butyryl]-[Glu1,Glu14,His17]-pramlintide] ({C20 diacid-γGlu}-ECNTATCATQRLAEFLHHSSNNFGPILPPTNVGSNTY-NH2; disulfide 2-7 (inferred)): in the series on food intake, the “Food intake reduction 0-24 h 3 nmol/kg (%)” value worked out at 15% and the “Food intake reduction 24-48 h 3 nmol/kg (%)” value worked out at 5%. Also, in series [1] (ThT fibrillation assay), the “ThT pH 4.0 lag time (h)” value amounted to 3 h.

Take `CC[C@H](C)[C@H](NC(=O)[C@@H]1CCCN1C(=O)CNC(=O)[C@H](Cc1ccccc1)NC(=O)[C@H](CC(N)=O)NC(=O)[C@H](CC(N)=O)NC(=O)[C@H](CO)NC(=O)[C@H](CO)NC(=O)[C@H](Cc1c[nH]cn1)NC(=O)[C@H](Cc1c[nH]cn1)NC(=O)[C@H](CC(C)C)NC(=O)[C@H](Cc1ccccc1)NC(=O)[C@H](CCC(=O)O)NC(=O)[C@H](C)NC(=O)[C@H](CC(C)C)NC(=O)[C@H](CCCNC(=N)N)NC(=O)[C@H](CCC(N)=O)NC(=O)[C@@H](NC(=O)[C@H](C)NC(=O)[C@@H]1CSSC[C@H](NC(=O)[C@H](CCCCN)NC(=O)CC[C@H](NC(=O)CCCCCCCCCCCCCCCCCCC(=O)O)C(=O)O)C(=O)N[C@@H](CC(N)=O)C(=O)N[C@@H]([C@@H](C)O)C(=O)N[C@@H](C)C(=O)N[C@@H]([C@@H](C)O)C(=O)N1)[C@@H](C)O)C(=O)N[C@@H](CC(C)C)C(=O)N1CCC[C@H]1C(=O)N1CCC[C@H]1C(=O)N[C@H](C(=O)N[C@@H](CC(N)=O)C(=O)N[C@H](C(=O)NCC(=O)N[C@@H](CO)C(=O)N[C@@H](CC(N)=O)C(=O)N[C@H](C(=O)N1CCC[C@H]1C(N)=O)[C@@H](C)O)C(C)C)[C@@H](C)O` [Example 52, N-alpha-[(S)-4-Carboxy-4-(19-carboxynonadecanoylamino)butyryl]-[Glu14,His17,Pro37]-pramlintide] ({C20 diacid-γGlu}-KCNTATCATQRLAEFLHHSSNNFGPILPPTNVGSNTP-NH2; disulfide 2-7 (inferred); C-terminus assumed): in the series on food intake, the “Food intake reduction 0-24 h 3 nmol/kg (%)” value was 62% and the “Food intake reduction 24-48 h 3 nmol/kg (%)” value stood at 74%. For the same molecule, in series [1] (Table 8), the “ThT pH 4.0 lag time” value is above 45 h. Also, in series [1] (Table 9), the “ThT pH 4.0 lag time” value is given as above 45 h. Besides, in series [1] (ThT fibrillation assay), the “ThT pH 4.0 lag time” value is reported as above 45 h and the “ThT pH 4.0 lag time (h)” value is listed as above 45 h.
